For 28 molecules, EC50 results are on record in US20220348558A1, “INHIBITORS OF ENCEPHALITIC ALPHAVIRUSES” (priority 2019, published 2022).

For one assay, the system named is WEEV California. The assay can be described thus: microbe, parasite or virus in culture. The format is cell-based. The following applies: Western equine encephalitis virus, Vero 76, 48 h, read-out: WEEV California EC50 nM.
A further assay relates to VEEV TC83. The assay can be described thus: microbe, parasite or virus in culture. The following applies: Venezuelan equine encephalitis virus, Vero 76, 48 h, read-out: VEEV TC83 EC50 nM. It is filed as cell-based.

The EC50 is the concentration giving half of the maximal effect. `COCCOc1c(F)cc(-n2c(C3CCCN3)nc3c(-c4cc(C)nc(C)c4)cc(C#N)cc3c2=O)cc1F` (stereo not drawn) [Example 162, 3-(3,5-difluoro-4-(2-methoxyethoxy)phenyl)-8-(2,6-dimethylpyridin-4-yl)-4-oxo-2-(pyrrolidin-2-yl)-3,4-dihydroquinazoline-6-carbonitrile]: the EC50 in the assay with WEEV California and in the assay with VEEV TC83 was 51 to 150 nM each time.

`[N-]=[N+]=Nc1cccc(-n2c([C@H]3CCCN3)nc3ccc([N+](=O)[O-])cc3c2=O)c1` [Example 17, (R)-3-(3-azidophenyl)-6-nitro-2-(pyrrolidin-2-yl) quinazolin-4 (3H)-one]: the EC50 with WEEV California is > 1000 nM; in the assay on VEEV TC83, 151 to 500 nM. With `O=c1c2cc([N+](=O)[O-])ccc2nc([C@H]2CCCN2)n1-c1cccc(OC(F)(F)F)c1` [Example 45, (R)-6-nitro-2-(pyrrolidin-2-yl)-3-(3-(trifluoromethoxy)phenyl)quinazolin-4 (3H)-one], the EC50 in the assay on WEEV California and in the assay on VEEV TC83 was > 1000 nM in each case. `COc1ccc(-n2c([C@H]3CCCN3C)nc3c(-c4cn(C)cn4)cc(C#N)cc3c2=O)cc1F` [Example 98, (R)-3-(3-fluoro-4-methoxyphenyl)-8-(1-methyl-1H-imidazol-4-yl)-2-(1-methylpyrrolidin-2-yl)-4-oxo-3,4-dihydroquinazoline-6-carbonitrile]: the EC50 in the assay on WEEV California and in the assay on VEEV TC83 was 1 to 50 nM each time. In the case of `COc1ccc(-n2c([C@H]3CCCN3)nc3c(-c4ccnc(F)c4)cc(C#N)cc3c2=O)cc1F` [Example 104, (R)-3-(3-fluoro-4-methoxyphenyl)-8-(2-fluoropyridin-4-yl)-4-oxo-2-(pyrrolidin-2-yl)-3,4-dihydroquinazoline-6-carbonitrile], the EC50 in the assay with WEEV California and with VEEV TC83 was 1 to 50 nM throughout. For the molecule `COc1ccc(-n2c(C3CCCN3)nc3c(-c4ccc(-c5ccccc5)nc4)cc(C#N)cc3c2=O)cc1F` (stereo not drawn) [Example 133, 3-(3-fluoro-4-methoxyphenyl)-4-oxo-8-(6-phenylpyridin-3-yl)-2-(pyrrolidin-2-yl)-3,4-dihydroquinazoline-6-carbonitrile], the EC50 in the assay with WEEV California and in the assay on VEEV TC83 was 1 to 50 nM in each case.

Turning to `Cc1cc(-c2cc(C#N)cc3c(=O)n(-c4cc(F)c(NCC5(CO)COC5)c(F)c4)c(C4CCCN4)nc23)cc(C)n1` (stereo not drawn) [Example 164, 3-(3,5-difluoro-4-(((3-(hydroxymethyl)oxetan-3-yl)methyl)amino)phenyl)-8-(2,6-dimethylpyridin-4-yl)-4-oxo-2-(pyrrolidin-2-yl)-3,4-dihydroquinazoline-6-carbonitrile], the EC50 with WEEV California and with VEEV TC83 was 501 to 1000 nM throughout. On to `O=c1c2cc([N+](=O)[O-])ccc2nc([C@@H]2CCCN2C2CCOCC2)n1-c1ccccc1` [Example 6, (S)-6-nitro-3-phenyl-2-(1-(tetrahydro-2H-pyran-4-yl)pyrrolidin-2-yl)quinazolin-4 (3H)-one], for which the figures for the EC50 with WEEV California and in the assay on VEEV TC83 were > 1000 nM and 501 to 1000 nM, respectively. With `O=c1c2cc([N+](=O)[O-])ccc2nc([C@@H]2CCCN2)n1-c1ccc(OC(F)(F)F)cc1` [Example 46, (S)-6-nitro-2-(pyrrolidin-2-yl)-3-(4-(trifluoromethoxy)phenyl)quinazolin-4 (3H)-one], the EC50 in the assay with WEEV California and in the assay with VEEV TC83 was > 1000 nM in each case.

For `COc1ccc(-n2c([C@H]3CCCN3)nc3c(Br)cc([N+](=O)[O-])cc3c2=O)cc1` [Example 80, (R)-8-bromo-3-(4-methoxyphenyl)-6-nitro-2-(pyrrolidin-2-yl) quinazolin-4 (3H)-one], the EC50 in the assay with WEEV California and with VEEV TC83 was 1 to 50 nM throughout. With `O=c1c2cc([N+](=O)[O-])ccc2nc([C@@H]2CCCN2)n1-c1ccccc1` [Example 5, (S)-6-nitro-3-phenyl-2-(pyrrolidin-2-yl) quinazolin-4 (3H)-one], the EC50 in the assay on WEEV California and in the assay with VEEV TC83 was 151 to 500 nM in each case. Regarding `COc1ncc(-n2c(C34CC(CN3)C4)nc3c(-c4ccc(C)nc4)cc(C#N)cc3c2=O)cn1` [Example 165, 2-(2-azabicyclo[2.1.1]hexan-1-yl)-3-(2-methoxypyrimidin-5-yl)-8-(6-methylpyridin-3-yl)-4-oxo-3,4-dihydroquinazoline-6-carbonitrile], the EC50 with VEEV TC83 was > 1000 nM.

`COc1c(F)cc(-n2c([C@H]3CCCN3)nc3c(-c4ccc(C(F)(F)F)nc4)cc(C#N)cc3c2=O)cc1F` [Example 118, (R)-3-(3,5-difluoro-4-methoxyphenyl)-4-oxo-2-(pyrrolidin-2-yl)-8-(6-(trifluoromethyl)pyridin-3-yl)-3,4-dihydroquinazoline-6-carbonitrile]: the EC50 lay in the range of 51 to 150 nM in the assay with WEEV California and 1 to 50 nM in the assay on VEEV TC83.

Turning to `COc1ccc(-n2c([C@H]3CCCN3)nc3c(-c4cncnc4)cc([N+](=O)[O-])cc3c2=O)cc1F` [Example 88, (R)-3-(3-fluoro-4-methoxyphenyl)-6-nitro-8-(pyrimidin-5-yl)-2-(pyrrolidin-2-yl) quinazol-in-4 (3H)-one], the EC50 with WEEV California and in the assay with VEEV TC83 was 1 to 50 nM in each case. Turning to `COc1ccc(-n2c(C3CCCN3)nc3c(-c4ccc(S(C)(=O)=O)cc4)cc(C#N)cc3c2=O)cc1F` (stereo not drawn) [Example 136, 3-(3-fluoro-4-methoxyphenyl)-8-(4-(methylsulfonyl)phenyl)-4-oxo-2-(pyrrolidin-2-yl)-3,4-dihydroquinazoline-6-carbonitrile], the EC50 in the assay on WEEV California and with VEEV TC83 was 1 to 50 nM in each case. Turning to `COc1ccc(-n2c([C@H]3CCCN3)nc3c([N+](=O)[O-])cccc3c2=O)cc1` [Example 47, (R)-3-(4-methoxyphenyl)-8-nitro-2-(pyrrolidin-2-yl)quinazolin-4 (3H)-one], the EC50 in the assay with WEEV California and with VEEV TC83 was > 1000 nM in each case.

Consider `O=c1c2cc([N+](=O)[O-])ccc2nc(C2CCN2)n1-c1ccccc1` (stereo not drawn) [Example 27, 2-(azetidin-2-yl)-6-nitro-3-phenylquinazolin-4 (3H)-one], for which the figures for the concentration for a half-maximal effect (EC50) in the assay with WEEV California and in the assay with VEEV TC83 were > 1000 nM and 501 to 1000 nM, respectively. `COc1ccc(-n2c(C3CCCN3)nc3c(-c4ccc(N5CCOCC5)nc4)cc(C#N)cc3c2=O)cc1F` (stereo not drawn) [Example 124, 3-(3-fluoro-4-methoxyphenyl)-8-(6-morpholinopyridin-3-yl)-4-oxo-2-(pyrrolidin-2-yl)-3,4-dihydroquinazoline-6-carbonitrile]: the EC50 in the assay on WEEV California and with VEEV TC83 was 1 to 50 nM throughout. Turning to `COc1ccc(-n2c(C34CC(CN3)C4)nc3c(-c4ccc(C)nc4)cc(C#N)cc3c2=O)cc1F` [Example 178, 2-(2-azabicyclo[2.1.1]hexan-1-yl)-3-(3-fluoro-4-methoxyphenyl)-8-(6-methylpyridin-3-yl)-4-oxo-3,4-dihydroquinazoline-6-carbonitrile], the concentration giving a half-maximal response (EC50) with VEEV TC83 was 1 to 50 nM.

`COc1ccc(-n2c([C@@H]3C[C@H](C(F)(F)F)CN3)nc3c(-c4ccc(C)nc4)cc(C#N)cc3c2=O)cc1F` (racemic) [Example 190, cis-(±)-3-(3-fluoro-4-methoxyphenyl)-8-(6-methylpyridin-3-yl)-4-oxo-2-((2S,4S)-4-(trifluoromethyl)pyrrolidin-2-yl)-3,4-dihydroquinazoline-6-carbonitrile]: in the assay on VEEV TC83, the EC50 fell in the range of 1 to 50 nM.

Turning to `COc1ccc(-n2c([C@@H]3CC(F)(F)CN3)nc3c(-c4ccc(C)nc4)cc(C#N)cc3c2=O)cc1F` [Example 183, (S)-2-(4,4-difluoropyrrolidin-2-yl)-3-(3-fluoro-4-methoxyphenyl)-8-(6-methylpyridin-3-yl)-4-oxo-3,4-dihydroquinazoline-6-carbonitrile], in the assay on VEEV TC83, the EC50 lay within 151 to 500 nM. Same read-out and setting: next, `COc1c(F)cc(-n2c(C3CCCN3)nc3c(-c4ccc(C(C)=O)nc4)cc(C#N)cc3c2=O)cc1F` (stereo not drawn) [Example 177, 8-(6-acetylpyridin-3-yl)-3-(3,5-difluoro-4-methoxyphenyl)-4-oxo-2-(pyrrolidin-2-yl)-3,4-dihydroquinazoline-6-carbonitrile]: 1 to 50 nM; `COc1c(F)cc(-n2c(C3CCCN3)nc3c(-c4ccc(C(C)(C)O)nc4)cc(C#N)cc3c2=O)cc1F` (stereo not drawn) [Example 182, 3-(3,5-difluoro-4-methoxyphenyl)-8-(6-(2-hydroxypropan-2-yl)pyridin-3-yl)-4-oxo-2-(pyrrolidin-2-yl)-3,4-dihydroquinazoline-6-carbonitrile]: 1 to 50 nM. Take `COc1ccc(-n2c([C@H]3CCCN3)nc3c(N4CCC(N5CCOCC5)CC4)cc(C#N)cc3c2=O)cc1F` [Example 179, (R)-3-(3-fluoro-4-methoxyphenyl)-8-(4-morpholinopiperidin-1-yl)-4-oxo-2-(pyrrolidin-2-yl)-3,4-dihydroquinazoline-6-carbonitrile]: the EC50 with VEEV TC83 is 1 to 50 nM. For `COc1ccc(-n2c(C3CCCN3)nc3c(Oc4ccc(C)nc4)cc(C#N)cc3c2=O)cc1F` (stereo not drawn) [Example 191, 3-(3-fluoro-4-methoxyphenyl)-8-((6-methylpyridin-3-yl)oxy)-4-oxo-2-(pyrrolidin-2-yl)-3,4-dihydroquinazoline-6-carbonitrile], in the assay with VEEV TC83, the EC50 fell in the range of 1 to 50 nM. Turning to `COc1ccc(-n2c(C3C[C@@H](OC)CN3)nc3c(-c4ccc(C)nc4)cc(C#N)cc3c2=O)cc1F` (stereo partly drawn) [Example 120, 3-(3-fluoro-4-methoxyphenyl)-2-((4R)-4-methoxypyrrolidin-2-yl)-8-(6-methylpyridin-3-yl)-4-oxo-3,4-dihydroquinazoline-6-carbonitrile], the EC50 with VEEV TC83 was 151 to 500 nM. In the case of `COc1ccc(-n2c([C@@H]3C[C@@](O)(C(F)(F)F)CN3)nc3c(-c4ccc(C)nc4)cc(C#N)cc3c2=O)cc1F` [Example 192, 3-(3-fluoro-4-methoxyphenyl)-2-((2S,4S)-4-hydroxy-4-(trifluoromethyl)pyrrolidin-2-yl)-8-(6-methylpyridin-3-yl)-4-oxo-3,4-dihydroquinazoline-6-carbonitrile], the EC50 in the assay on VEEV TC83 lay within 1 to 50 nM.

On to `COc1ccc(-n2c(C3CCCN3)nc3c(-c4ccc(CO)nc4)cc(C#N)cc3c2=O)cc1F` (stereo not drawn) [Example 181, 3-(3-fluoro-4-methoxyphenyl)-8-(6-(hydroxymethyl)pyridin-3-yl)-4-oxo-2-(pyrrolidin-2-yl)-3,4-dihydroquinazoline-6-carbonitrile], for which, in the assay on VEEV TC83, the EC50 fell in the range of 1 to 50 nM.
